These results are taken from PMC8725448 (Journal of Cannabis Research, 2022).

Entries after “also recorded” stand apart in the source; their conditions may differ.

The test system of data set [1] is hyperthermia-induced seizures in Scn1a^+/- mice. Kind of data set: Hyperthermia-induced seizures in Scn1a+/- mouse model of Dravet syndrome. In kind it is in vivo. As to the method:
(§1) Hyperthermia-induced seizure experiments were conducted on male and female Scn1a^+/- mice at P14-16 as previously described (Hawkins et al. [2017]). No significant sex differences were observed so males and females were combined across groups. Briefly, for CBGA methyl ester experimental animals a RET-3 rectal temperature probe was inserted 30 min after i.p. injections of vehicle or CBGA methyl ester. Mice acclimated to the probe for 5 min before hyperthermia protocol began. Olivetolic acid experimental animals acclimated to the rectal temperature probe for 5 min then received an i.p. injection of vehicle or olivetolic acid immediately before the hyperthermia protocol was initiated. Mouse core body temperature was elevated 0.5°C every 2 min until the onset of first clonic convulsion with loss of posture or until 42.5°C was reached. The dose range (10, 30, or 100 mg/kg) was chosen to provide a point of direct comparison to CBGA, which is anticonvulsant at 30 and 100 mg/kg. Seizure threshold temperatures were compared in GraphPad Prism 8.2 (LaJolla, USA) using Mantel-Cox logrank test and p < 0.05 was considered statistically significant. Following the hyperthermia-induced seizure protocol, the plasma samples were isolated as described for the pharmacokinetic analysis from a cohort of experimental mice.

Data set [2] in a line: Plasma concentrations in experimental Scn1a+/- mice after hyperthermia protocol. Format: in vivo, mouse. How it is done: The plasma and brain samples were prepared for LC-MS/MS analysis as previously described (Anderson et al. [2019b], [2020]). Briefly, acetonitrile was used to precipitate proteins and extract CBGA methyl ester and olivetolic acid from the biological matrices. The brain samples were additionally filtered through Amicon Ultracel 3K (Merck-Millipore; Burlington, USA) filtration devices. The plasma and brain samples underwent supported-liquid extraction with methyl tert-butyl ether using Biotage Isolute SLE+ columns (Uppsala, SWE) and were then evaporated to dryness with N2. Residues were reconstituted in actetonitrile and 0.1% formic acid in water (1:1, v/v) for analysis using a Shimadzu Nexera ultra-HPLC coupled to a Shimadzu 8030 triple quadrupole mass spectrometer (Shimadzu Corp.; Kyoto, JPN). The mass spectrometer was operated in positive electrospray ionization mode for CBGA methyl ester and negative electrospray ionization mode for olivetolic acid with multiple reaction monitoring and the following mass transition pairs (m/z): 375.20 > 343.25, 375.20 > 219.10 and 375.20 > 251.15 (CBGA-methylester) and 223.25 > 179.25 (olivetolic acid). Quantification of analytes in the plasma and brain samples was achieved by comparing samples to standards prepared with known amounts of compound.
as §1

Data set [3] deals with T1, CaV3.1 (Homo sapiens, UniProt O43497).
T1 construct: expressed in transfected cells; host or cells: Flp-In T-REx HEK (tetracycline-induced)
Kind of data set: Measurement of intracellular calcium, CaV3.1. In kind it is cell-based. The note with it: 10 μM; HEK293 cells expressing human CaV3.1. How it is done:
Changes in intracellular calcium concentrations were measured in Flp-In™ T-REx™ HEK stably expressing either CaV3.1, CaV3.2, or CaV3.3 using Calcium 5 dye (Molecular Devices; Sunnyvale, USA) as previously described (Bladen et al. [2021]). Briefly, cells (120,000/well) were plated into a black, clear-bottomed poly-D-lysine coated, 96-well plate in the presence of 2 μg/mL tetracycline to induce channel expression and incubated overnight at 37°C in ambient CO2. Calcium 5 dye was diluted in HEPES-buffered low potassium Hanks Balanced Salt Solution (HBSS) at 50% of manufacturer’s recommendation. Dye solution containing probenecid (2.5 mM) was added and incubated for 60 min at 37°C in ambient CO2. Compounds were prepared as stock solutions in DMSO and diluted in HBSS with 0.01% bovine serum albumin. Compounds were applied for 5 min, then 10 mM CaCl2 was added. A FlexStation 3 Microplate reader (Molecular Devices; San Jose, USA) was used to take fluorescence readings every 2 s (excitation 485 nm, emission 525 nm). Baseline recordings were taken as the average fluorescence over 20 s preceding CaCl2 addition. Changes in fluorescence were measured as the maximal increase in fluorescence from baseline following CaCl2 addition and normalized to the response of vehicle. CaCl2 addition produced no effect in non-induced cells (Supplemental Fig. 2). Final drug concentrations had ≤ 0.1% DMSO. […]
A general note: Calcium assays in cells follow changes in intracellular calcium, usually with a dye or a luminescent sensor.

T1 sequence (O43497 whole entry): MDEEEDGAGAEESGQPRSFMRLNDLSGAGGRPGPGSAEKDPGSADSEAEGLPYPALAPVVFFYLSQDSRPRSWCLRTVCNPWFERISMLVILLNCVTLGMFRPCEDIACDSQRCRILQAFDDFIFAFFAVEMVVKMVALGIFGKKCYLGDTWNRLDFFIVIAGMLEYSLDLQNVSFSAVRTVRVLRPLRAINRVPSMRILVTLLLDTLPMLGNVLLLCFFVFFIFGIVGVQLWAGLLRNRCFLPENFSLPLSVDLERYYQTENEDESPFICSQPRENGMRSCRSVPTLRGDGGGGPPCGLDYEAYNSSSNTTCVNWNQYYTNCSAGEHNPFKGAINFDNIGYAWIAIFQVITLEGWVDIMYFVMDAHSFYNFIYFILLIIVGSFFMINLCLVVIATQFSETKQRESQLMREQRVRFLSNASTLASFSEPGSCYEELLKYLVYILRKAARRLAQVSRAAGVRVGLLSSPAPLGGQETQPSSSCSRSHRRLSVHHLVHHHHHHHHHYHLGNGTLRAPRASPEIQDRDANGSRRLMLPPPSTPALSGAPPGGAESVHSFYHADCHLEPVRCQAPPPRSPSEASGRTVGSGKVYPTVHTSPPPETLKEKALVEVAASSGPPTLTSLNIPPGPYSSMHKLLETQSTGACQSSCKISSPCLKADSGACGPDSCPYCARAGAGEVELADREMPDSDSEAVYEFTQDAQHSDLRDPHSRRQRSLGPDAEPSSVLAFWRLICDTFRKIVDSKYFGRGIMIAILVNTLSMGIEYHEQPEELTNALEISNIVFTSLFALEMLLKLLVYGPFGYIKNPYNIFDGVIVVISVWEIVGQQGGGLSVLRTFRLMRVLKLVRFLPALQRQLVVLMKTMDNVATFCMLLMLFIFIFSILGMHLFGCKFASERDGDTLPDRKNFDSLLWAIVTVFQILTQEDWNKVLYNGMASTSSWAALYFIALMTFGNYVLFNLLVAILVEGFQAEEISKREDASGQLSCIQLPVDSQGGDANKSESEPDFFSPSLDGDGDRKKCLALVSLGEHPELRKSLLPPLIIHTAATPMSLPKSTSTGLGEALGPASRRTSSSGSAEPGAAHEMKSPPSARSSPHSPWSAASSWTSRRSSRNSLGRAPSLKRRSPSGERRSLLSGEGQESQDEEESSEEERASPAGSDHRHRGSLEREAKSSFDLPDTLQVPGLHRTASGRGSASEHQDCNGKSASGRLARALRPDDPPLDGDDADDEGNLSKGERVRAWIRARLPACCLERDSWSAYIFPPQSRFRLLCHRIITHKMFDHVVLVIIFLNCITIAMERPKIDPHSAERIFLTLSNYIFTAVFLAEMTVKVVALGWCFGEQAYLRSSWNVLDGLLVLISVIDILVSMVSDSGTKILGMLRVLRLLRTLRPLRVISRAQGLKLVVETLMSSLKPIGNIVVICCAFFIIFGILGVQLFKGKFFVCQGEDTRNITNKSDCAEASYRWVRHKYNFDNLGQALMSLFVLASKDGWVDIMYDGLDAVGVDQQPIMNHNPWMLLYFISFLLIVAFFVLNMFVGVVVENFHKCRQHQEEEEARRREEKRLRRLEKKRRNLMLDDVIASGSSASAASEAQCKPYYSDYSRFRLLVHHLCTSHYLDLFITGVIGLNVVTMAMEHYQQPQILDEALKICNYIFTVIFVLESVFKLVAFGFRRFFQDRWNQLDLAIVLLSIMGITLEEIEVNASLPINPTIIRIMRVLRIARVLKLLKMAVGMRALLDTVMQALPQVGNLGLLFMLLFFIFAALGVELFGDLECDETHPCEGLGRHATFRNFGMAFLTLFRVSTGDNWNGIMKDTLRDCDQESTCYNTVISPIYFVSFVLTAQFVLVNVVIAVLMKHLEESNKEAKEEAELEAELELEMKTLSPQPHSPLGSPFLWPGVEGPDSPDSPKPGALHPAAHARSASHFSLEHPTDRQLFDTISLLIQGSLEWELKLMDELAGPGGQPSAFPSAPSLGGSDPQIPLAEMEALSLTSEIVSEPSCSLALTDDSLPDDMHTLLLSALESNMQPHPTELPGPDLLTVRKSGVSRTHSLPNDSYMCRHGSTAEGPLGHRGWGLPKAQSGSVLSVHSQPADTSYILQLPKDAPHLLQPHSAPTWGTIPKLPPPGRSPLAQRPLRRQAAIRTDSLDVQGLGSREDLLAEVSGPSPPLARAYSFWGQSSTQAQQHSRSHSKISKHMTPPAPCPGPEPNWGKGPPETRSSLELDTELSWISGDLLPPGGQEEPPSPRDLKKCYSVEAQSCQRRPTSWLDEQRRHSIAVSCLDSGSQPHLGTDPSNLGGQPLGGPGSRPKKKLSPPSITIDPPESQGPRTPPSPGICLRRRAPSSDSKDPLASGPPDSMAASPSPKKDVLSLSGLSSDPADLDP

For `CCCCCc1cc(O)cc(O)c1C(=O)O` [Olivetolic acid], the “increase of GTCS temperature threshold” value in data set [1] (100 mg/kg i.p., Scn1a+/- mice) is “approximately 0.4 °C”. For the same molecule, in data set [1] (100 mg/kg i.p., Scn1a+/- mice P14-16), the “anticonvulsant effect (GTCS temperature threshold)” value was “modest but significant anticonvulsant effect; also recorded: significantly increased the temperature threshold for GTCS”. For the same molecule, the Plasma concentration was 65000 ± 5000 ng/mL in data set [2] (dose 10 mg/kg i.p.), 89000 ± 12000 ng/mL in data set [2] (dose 30 mg/kg i.p.) and 116000 ± 27000 ng/mL in data set [2] (dose 100 mg/kg i.p.). Also, in data set [3], the “inhibition of CaV3.1 (change in intracellular calcium relative to vehicle)” value was “Neither CBGA methyl ester nor olivetolic acid had any effect; also recorded: ineffective”.

As to `CCCCCc1cc(O)c(C/C=C(\C)CCC=C(C)C)c(O)c1C(=O)OC` [CBGA methyl ester], the “effect on hyperthermia-induced seizures” value in data set [1] (any dose tested (10, 30, 100 mg/kg i.p.), Scn1a+/- mice P14-16) was “no effect; also recorded: ineffective”. The Plasma concentration worked out at 837 ± 212 ng/mL in data set [2] (dose 10 mg/kg i.p.), 4700 ± 600 ng/mL in data set [2] (dose 30 mg/kg i.p.) and 6200 ± 600 ng/mL in data set [2] (dose 100 mg/kg i.p.). The “inhibition of CaV3.1 (change in intracellular calcium relative to vehicle)” value in data set [3] is “Neither CBGA methyl ester nor olivetolic acid had any effect; also recorded: no effect”.
